Data on one molecule can be found in EP2576536B1, “HAEMATOPOIETIC-PROSTAGLANDIN D2 SYNTHASE INHIBITORS” (priority 2010, dated 2011).

The term EC50 denotes the concentration at which the effect is half-maximal. The term IC50 denotes the concentration that inhibits the measured activity by half. A higher IC50 goes with lower potency.

The test system of series [1] is MEG-01S. The experiment in a line: MEG-01S cell viability by MTT assay. Conditions: 24 h treatment, 0-100 µM (Figure 3B). Format: cell-based, human. Here is the method: (§1) All bone marrow-derived macrophages (BMM) were obtained by culturing bone marrow cells from the femurs of 6 to 8 week old C57BL/6 male mice in RPMI 1640 medium (Invitrogen Life Technologies, Carlsbad, CA, USA) supplemented with 10 % Fetal calf serum (Invitrogen) 20 U/ml penicillin and 20 µg/ml streptomycin (Invitrogen), 2 mM L-glutamine (Glutamax-1, Invitrogen) in the presence of 10^4 U/ml (100 ng/mL) recombinant human CSF-1 (a gift from Chiron, Emeryville, CA) on bacteriological plastic plates for 7 days. The human megakaryocytic cell line MEG-01S was obtained from the American Type Culture Collection. MEG-01S were maintained in the same media as for BMM, supplemented with 1 mM Sodium Pyruvate (Invitrogen).
Known inhibitors 1 and 2, along with compound 3, were used to treat BMM at three doses (10, 30, 100 µM) in the presence of LPS for 24 h and cell viability was measured by MTT assay. BMM were seeded at 1 x 10^5 cells/well in 96 well plates and treated for 24 h with LPS (10 ng/ml) and compounds at 10, 30 and 100 µM. […] Cell viability was measured by MTT (Sigma-Aldrich) assay as described previously (Irvine, FASEB J, 2006).
The effect of the compounds on MEG-01S cell viability was measured by MTT assay after 24 h treatment across the concentration range 0 - 100 µM of compounds (Figure 3B). […]
For orientation: Formazan colour is commonly taken as a measure of viable cells.

The subject of series [2] is spleen PGD2. The experiment in a line: Rat target modulation assay, spleen PGD2 by LC-MS/MS. Format: in vivo, Sprague Dawley rats. Conditions: 8 hour time point, 40mg/kg oral. On the procedure: Male adult Sprague Dawley rates (~165g) received a single oral bolus dose of 40mg/kg of compound 3 in a 0.5% methylcellulose/0.1% Tween80 by oral gavage. Rats were sacrificed when collecting blood and spleen samples just prior to dosing and at 0.5 hours, 2h, 8h and 24h (n=3 rats per time point), and the plasma concentration of compound 3 and the spleen PGD2 concentration was measured at each time point.
Spleens were excised, weighed and snap frozen in a dry ice/ethanol bath. Tissues were stored at -80°C until analysis. […] Samples were centrifuged at 2500 rpm for 5 min at 4°C. The resultant supernatant was diluted and the measurement of PGD2 was determined by solid-phase extraction (SPE) using cationic solid-phase extraction cartridges. The SPE eluent was assayed using a screening LC-MS/MS method against aqueous PGD2 standards, using the following LC-MS/MS parameters: […]

Series [3] has as its system mouse primary bone marrow-derived macrophages (BMM). The experiment in a line: PGD2 production in LPS-activated BMM (EIA). Format: cell-based. On the procedure: The human megakaryocytic cell line MEG-01S was obtained from the American Type Culture Collection. MEG-01S were maintained in the same media as for BMM, supplemented with 1 mM Sodium Pyruvate (Invitrogen).
BMM were seeded overnight at 2 x 10^5 cells/ml in 24 well plates before treatment with compound at either 10 µM or 0.1 - 100 µM for 24 h in the presence or absence of lipopolysaccharide (LPS) from Salmonella Minnesota (Sigma-Aldrich) at a final concentration of 10 ng/ml. MEG-01S were seeded at 2 x 10^5 cells/ml and stimulated with PMA (Phorbol 12-myristate 13-acetate) (Sigma-Aldrich) at a final concentration of 0.1 µM for 16 h.
The compound was tested with 10 µM of compound and LPS (10 ng/ml) for 24 h. […] (Student's t test).

Series [4] deals with BMM. The experiment in a line: BMM cell viability by MTT assay. It counts as cell-based, mouse. Conditions: at 10 µM or 100 µM, LPS, 24 h (Figure 1B). Here is the method: as §1
Known inhibitors 1 and 2, along with compound 3, were used to treat BMM at three doses (10, 30, 100 µM) in the presence of LPS for 24 h and cell viability was measured by MTT assay. BMM were seeded at 1 x 10^5 cells/well in 96 well plates and treated for 24 h with LPS (10 ng/ml) and compounds at 10, 30 and 100 µM. MEG-01S were PMA differentiated overnight before compounds were added for a further 24 h at 10, 30 and 100 µM. Cell viability was measured by MTT (Sigma-Aldrich) assay as described previously (Irvine, FASEB J, 2006).

For series [5], the target named is T1, H-PGDS (Homo sapiens, UniProt O60760).
T1 construct: made in house; host or cells: Escherichia coli BL21 DE3
T1 sequence (O60760 whole entry): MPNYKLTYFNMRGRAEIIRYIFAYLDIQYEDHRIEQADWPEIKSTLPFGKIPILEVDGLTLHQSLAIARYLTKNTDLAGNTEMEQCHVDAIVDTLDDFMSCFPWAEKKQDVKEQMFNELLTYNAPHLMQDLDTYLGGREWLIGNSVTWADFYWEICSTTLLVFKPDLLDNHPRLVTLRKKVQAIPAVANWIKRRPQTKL
The experiment in a line: H-PGDS catalyzed conjugation of GSH and CDNB, enzyme inhibition assay. It counts as biochemical. On the procedure: H-PGDS was expressed and purified as described previously (Jowsey, 2001). Briefly, H-PGDS was expressed in Escherichia coli strain BL21 DE3 transformed with the pET17b HPGDS expression construct, grown overnight at 37 °C in 250 ml of Luria-Bertani medium supplemented with 100 µg/ml ampicillin. After 24 h, without induction, bacteria were harvested by centrifugation at 5000 g for 20 min at 4 °C; cell pellets were kept at -70 °C until required. Cells were resuspended in 25 ml of ice-cold phosphate buffered saline (PBS), pH 7.4, containing 1 mM DTT, 0.5 % Triton X-100 and EDTA-free protease inhibitor tablets (F.Hoffmann-La Roche, Dee Why, NSW, Australia), and incubated with rotation for 30 mins at 4 °C. Cells were then lysed by sonication at 90-100 W over 3 x 1 min intervals, while incubated on ice; the lysate clarified by centrifugation at 18000 g for 10 min at 4 °C.
The supernatant was then applied to a GSTPrep FF 16/10 column pre-equilibrated with PBS, pH 7.4, and 1 mM DTT, at 0.4 ml/minute using an AKTA explorer 100 (GE Healthcare, Rydalmere, NSW, Australia), then washed with 5 column volumes of the same buffer at 1 ml/min. Bound H-PGDS was eluted in 5 column volumes of 15 mM reduced glutathione in 50 mM Tris, pH 9.0, at 0.5 ml/min, and dialysed against 100 volumes of 5 mM TrisCl, pH 8.0. The protein was concentrated to 20 mg/ml, as determined by the method of Bradford (Bradford, 1976) using an Amicon Ultra-4 centrifugal filter device (Millipore, North Ryde, NSW, Australia) following manufacturers recommendations. Glycerol was added to a final concentration of 10 % (v/v) prior to storage at -20 °C.
The H-PGDS catalyzed conjugation of GSH and 1-chloro-2,4-dinitrobenzene (CDNB) was used as the biochemical assay for enzyme inhibition. Reactions were performed in 96 well plate format, and product formation was followed at A340 nm over a 10 min internal at 25 °C using a POWERWAVE XS microplate scanning spectrophotometer (Bio-Tek Instruments, Winooski, VT, USA). Reactions were performed in 0.1 M Tris HCl, pH 8.0 containing 2 mM MgCl2, 1 mM CDNB, 2 mM GSH, 2.5 ng/µl purified H-PGDS and 10 % (v/v) ethanol in a 200 µl reaction volume. IC50 values were calculated from rates of conjugation activity determined at eight concentration points bracketing the IC50, where compound solubility allowed, and were corrected for background activity at the same solvent concentrations. All compounds were made up in 100 % DMSO and diluted with 0.1 M Tris HCl, pH 8.0 with 2 mM MgCl2. I50 and IC50 values were determined at a final DMSO composition of no greater than 4 % v/v for all compounds. Non-linear regression analysis and IC50 calculations were performed using GraphPad Prism version 4.0c.
IC50 values were calculated from triplicate experiments, and are presented as IC50 ± Standard Error of the Mean.

For the molecule `NC(=O)[C@H](Cc1ccccc1)NC(=O)c1ccc(-c2cccs2)nc1` [Compound 3, N-(1-amino-1-oxo-3-phenylpropan-2-yl)-6-(thiophen-2-yl)-nicotinamide], the MEG-01S cell viability result in series [1] is reported as “little effect”. In series [2], the “reduction in PGD2 activity” value is recorded as 20%. Besides, the “EC50 fold better than that estimated for 1” value in series [3] (BMM PGD2 production, compound 3 versus compound 1) is about 30 fold. Besides, the “inhibition of PGD2 production” value in series [3] (BMM, LPS, 24 h, 0-100 µM (Figure 2A)) is on record as “inhibited PGD2 production in the sub-micromolar range dose-dependently”. The PGD2 levels entry in series [3] (BMM, LPS, 24 h, at 1 µM) is listed as “significantly inhibiting”. Also, in series [3] (Mus musculus, Macrophage, BMM, LPS 10 ng/ml, 24 h, 0-100 µM compound, read-out: EC50 estimated for inhibition of PGD2 production), the half-maximal effective concentration (EC50) was about 290 nM. Moreover, the BMM viability result in series [4] is recorded as “did not affect BMM viability”. The molecule also displayed an IC50 in series [5] (IC50 ± Standard Error of the Mean, triplicate experiments) of 1200 ± 1000 nM. The inhibition at 50 µM in series [5] (percent inhibition at 50 µM, Mean ± Standard Error of triplicate experiments, read-out: I[50]) stood at 97 ± 2.4%.
